What is called IC50 is the midpoint of a concentration-inhibition curve.

The test system of experiment [1] is BALB/c mice, carrageenan air pouch. Nature of the experiment: Carrageenan air pouch model. The format is in vivo. The following applies: single oral application 1 h before carrageenan, read 4 h after, vs carrageenan-treated mice, FIG. 4. As for the experimental part:
On day 0, BALB/c mice were shaved at the nape of the neck, anesthetized and 6 mL air sterile (0.2 μm, Sartorius, Cat. 16532) was injected subcutaneously using a 23G×1½ inch needle fixed to a 6 mL syringe. The injection site was sealed with flexible collodion (Macron, Cat. 4580-02). On day 3 a further 3 mL of sterile air was injected into the neck.
3% λ-carrageenan was prepared by dissolving 1.8 g λ-carrageenan (FLUKA, Cat. 22049, lot 1408463) in 60 mL hot de-ionized water. Once dissolved, the solution was cooled to room temperature and the volume made up to 60 mL with de-ionized water.
On day six, PXS-5131 in PBS (vehicle) or PBS only were administered by oral gavage to the mice. One hour after administration, mice were injected with 1 mL 3% λ-carrageenan, using a 23G×2 inch needle fitted to a 1 mL syringe, directly into the air pouch. Sham animals were administered 1 mL de-ionized water instead of λ-carrageenan solution.
Four hours after carrageenan/de-ionized water injection, the mice were anesthetized and 3 mL 10 U/mL heparinized saline was injected into the air pouch. The air pouch was gently massaged, the contents immediately removed using an 18G×1 inch needle fitted to a 5 mL syringe, and the exudate volume recorded. An aliquot of the exudate taken for total white blood cell counting; a second aliquot of the exudate was taken for differential white blood cell counts.

For experiment [2], the system named is Hooded Wistar rat model of dopaminergic neurodegeneration. Nature of the experiment: Intranigral LPS-induced neuroinflammatory model, dopaminergic neuron counts. The experiment is classed as in vivo, Hooded Wistar male rats. The following applies: unilateral LPS, 2 mg/kg i.p. daily for 2 weeks, t-test p<0.05, FIG. 5. As for the experimental part: Hooded Wistar male rats weighing between 300-400 g were obtained from Adelaide Laboratory Animal Services.
Unilateral infusions: Rats receiving a unilateral injection of 2 μL of 1.5 mg/mL solution of LPS (O55:B5, Sigma) in the substantia nigra were anaesthetized with isofluorane and positioned in a stereotaxic frame. For all rats, holes were drilled into the skull above the appropriate targeted structures according to the following coordinates: −5.3 mm posterior; ±2.0 mm lateral; −8.0 mm ventral to bregma.
Immunohistochemical procedures: two weeks after the lesion, the rats were transcardially perfused with PBS followed by PFA 4%. Brains were post-fixed in PFA 4%, and coronal sections of 30 μm containing the substantia nigra were collected and washed 3×0.01 M phosphate-buffered saline at pH 7.4. (PBS) for 10 minutes. Dopaminergic neurons were stained with anti-tyrosine hydroxylase (TH) antibody 1:10000 and visualized using nickel-enhanced 3,3′-diaminobenzidine (DAB) and counted manually.

The target of experiment [3] is T1, Adipose Tissue SSAO/VAP-1 (Mus musculus, UniProt O70423).
T1 construct: from tissue; host or cells: abdominal fat of C57BL/6J and mdx (C57BL/10ScSn-Dmdmdx/J) mice
T1 sequence (O70423 1-765): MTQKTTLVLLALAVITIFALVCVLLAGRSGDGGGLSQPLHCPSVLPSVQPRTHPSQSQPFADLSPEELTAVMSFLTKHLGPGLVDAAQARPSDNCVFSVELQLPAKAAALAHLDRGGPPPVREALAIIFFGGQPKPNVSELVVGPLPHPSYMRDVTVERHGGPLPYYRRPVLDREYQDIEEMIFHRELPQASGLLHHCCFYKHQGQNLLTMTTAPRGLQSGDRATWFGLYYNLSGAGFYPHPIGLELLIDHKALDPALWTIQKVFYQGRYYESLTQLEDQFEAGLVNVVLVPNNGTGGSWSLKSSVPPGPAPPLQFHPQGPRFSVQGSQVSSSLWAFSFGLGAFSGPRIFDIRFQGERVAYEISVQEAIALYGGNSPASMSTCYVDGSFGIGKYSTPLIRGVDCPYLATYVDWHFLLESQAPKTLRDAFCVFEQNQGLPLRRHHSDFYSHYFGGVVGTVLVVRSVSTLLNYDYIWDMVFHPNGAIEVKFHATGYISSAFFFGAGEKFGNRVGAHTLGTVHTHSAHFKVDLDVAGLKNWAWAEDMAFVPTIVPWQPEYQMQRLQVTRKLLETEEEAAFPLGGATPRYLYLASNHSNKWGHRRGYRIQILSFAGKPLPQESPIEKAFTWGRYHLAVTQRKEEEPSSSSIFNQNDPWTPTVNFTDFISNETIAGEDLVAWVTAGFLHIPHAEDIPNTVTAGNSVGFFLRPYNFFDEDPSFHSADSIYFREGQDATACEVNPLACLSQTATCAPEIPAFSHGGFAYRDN
The experiment is described as follows: Mouse adipose tissue SSAO/VAP-1 activity after oral administration. The format is in vivo. The following applies: for SSAO/VAP-1 activity in adipose tissue: C57BL/6J mice, single oral dose, FIG. 8. As for the experimental part:
Mice were orally administered the compound under study and sacrificed at various time points and abdominal fat, muscle and heart tissue collected.
SSAO/VAP-1 activity in the adipose tissue was determined as described in EXAMPLE 13.
Activity of the treated samples was analyzed using the fluorometric method described in EXAMPLE 9 for SSAO/VAP-1 activity, EXAMPLE 10 for MAO-B and EXAMPLE 11 for MAO-A activity (FIG. 8 and FIG. 9).

The target in a further experiment is T2, Recombinant human MAO-B (Homo sapiens, UniProt P27338).
T2 construct: purchased Sigma Aldrich
T2 sequence (P27338 1-520): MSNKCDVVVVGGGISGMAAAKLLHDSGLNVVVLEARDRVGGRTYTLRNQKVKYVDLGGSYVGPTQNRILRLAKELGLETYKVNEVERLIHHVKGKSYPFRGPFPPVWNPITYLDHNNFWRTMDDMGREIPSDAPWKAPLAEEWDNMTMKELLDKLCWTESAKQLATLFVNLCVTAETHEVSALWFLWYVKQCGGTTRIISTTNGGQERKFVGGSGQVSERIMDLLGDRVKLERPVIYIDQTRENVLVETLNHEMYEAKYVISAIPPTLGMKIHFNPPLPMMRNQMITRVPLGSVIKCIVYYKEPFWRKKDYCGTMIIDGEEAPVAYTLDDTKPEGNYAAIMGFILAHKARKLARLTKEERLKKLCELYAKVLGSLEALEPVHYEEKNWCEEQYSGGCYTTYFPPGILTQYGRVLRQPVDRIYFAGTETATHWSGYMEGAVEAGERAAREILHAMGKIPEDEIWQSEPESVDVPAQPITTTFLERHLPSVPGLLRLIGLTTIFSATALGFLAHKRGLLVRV
Nature of the experiment: Inhibition of human recombinant MAO-B. The experiment is classed as biochemical. Particulars: incubation time of 2 hours, benzylamine 100 μM. As to the method:
Method to Determine the Ability of Compounds of Formula I to Inhibit Human Recombinant MAO-B
The ability of the compounds of this invention to inhibit MAO-B activities in vitro was tested. Recombinant human MAO-B (0.06 mg/mL; Sigma Aldrich) was used as source of MAO-B enzyme activities.

Counter-ions that a name gives are not always drawn. A value given as a limit tells only on which side of the number the result lay.

In the case of `NC/C(=C\F)C1Cc2ccccc2O1` (single isomer, unassigned; (-)) [PXS-5131, (−)-(E)-2-(2,3-Dihydrobenzofuran-2-Yl)-3-Fluoroprop-2-En-1-Amine Hydrochloride], in experiment [1], the “exudate volume in the air pouch” value is “decrease” and the “neutrophil count in the air pouch” value is on record as “decrease”. Besides, the “loss of dopaminergic neurons (TH-positive) in substantia nigra” value in experiment [2] was “significant protection from loss”.
In the case of `N#Cc1ccc(OC/C(=C/F)CN)cc1` [Compound 1, (E)-4-((2-(aminomethyl)-3-fluoroallyl)oxy) benzonitrile], the “SSAO/VAP-1 activity in adipose tissue” value in experiment [3] (24-hour time point) is “inhibition of the enzyme activity is still evident”; in experiment [3] (various doses, 4 hours after administration), “dose-related reduction”. The “adipose tissue SSAO/VAP-1 activity” value in experiment [3] (mdx mice (C57BL/10ScSn-Dmdmdx/J), oral, FIG. 10) is reported as “completely inhibits”. Further, the concentration for half-maximal inhibition (IC50) on Recombinant human MAO-B was under 50 nM.

The values above are taken from patent publication US12428370B2, “Haloallylamine dual amine oxidase inhibitors” (Syntara Limited, priority 2020, dated 2025).
